Source: ChEMBL document CHEMBL5352419, “Design, synthesis, and biological evaluation of tetrahydroquinoline amphiphiles as membrane-targeting antimicrobials against pathogenic bacteria and fungi” (Eur J Med Chem, 2022)
≈ marks a conversion by molar mass, not a printed value. Calls of active or inactive are those of the source. The calls are words filed in the database; no cut-off is given here.

Assays:
[1] = tested on: Cell membrane; test: Disruption of membrane integrity in Candida albicans ATCC10231 assessed as red fluorescence at 8 times of MIC incubated for 2 hrs under dark condition by SYTO 9 and PI staining based laser confocal microscopy analysis
[2] = tested on: Acinetobacter baumannii; test: Antimicrobial activity against Acinetobacter baumannii ATCC17978 assessed as bacterial growth inhibition incubated for 24 hrs in presence of 175.5 ug/mL K+ by Muller Hinton broth based dilution assay; assay type: functional
[3] = tested on: Staphylococcus aureus; test: Antimicrobial activity against Staphylococcus aureus ATCC29213 assessed as log reduction in microbial load at 8 times of MIC measured at 0.5 hr by time-kill kinetics assay; assay type: functional
[4] = tested on: Staphylococcus aureus; test: Antimicrobial activity against methicillin-resistant Staphylococcus aureus NCTC10442 assessed as bacterial growth inhibition incubated for 24 hrs in presence of 100 ug/mL Ca2+ by Muller Hinton broth based dilution assay; assay type: functional
[5] = tested on: Klebsiella pneumoniae; test: Antimicrobial activity against Klebsiella pneumoniae ATCC10031 assessed as bacterial growth inhibition incubated for 24 hrs by Muller Hinton broth based dilution assay; assay type: functional
[6] = tested on: Candida albicans; test: Antimicrobial activity against Candida albicans CMCC98001 assessed as fungal growth inhibition incubated for 48 hrs by Sabouraud Dextrose broth based dilution assay; assay type: functional
[7] = tested on: Candida albicans; test: Induction of drug resistance in Candida albicans ATCC10231 assessed as change in MIC at sub-inhibitory concentration incubated for 21 to 22 passages; assay type: functional
[8] = tested on: Staphylococcus aureus; test: Disruption of preformed biofilm in Staphylococcus aureus ATCC29213 assessed as residual preformed biofilm at 0.78 ug/mL incubated for 24 hrs by crystal violet staining based analysis relative to control; assay type: functional; conditions: dose 0.78 µg/ml
[9] = tested on: Candida albicans; test: Antimicrobial activity against Candida albicans ATCC10231 assessed as fungal killing at 1 to 8 times of MIC measured upto 24 hrs by time-kill kinetics assay; assay type: functional, organism-based
[10] = tested on: Staphylococcus aureus; test: Antimicrobial activity against Staphylococcus aureus ATCC29213 assessed as bacterial growth inhibition incubated for 24 hrs in presence of 3220 ug/mL Na+ by Muller Hinton broth based dilution assay; assay type: functional
[11] = tested on: Candida albicans; test: Antimicrobial activity against Candida albicans CMCC98001 assessed as fungal growth inhibition incubated for 48 hrs in presence of 3220 ug/mL Na+ by Sabouraud Dextrose broth based dilution assay; assay type: functional
[12] = tested on: Staphylococcus aureus; test: Antimicrobial activity against methicillin-resistant Staphylococcus aureus NCTC10442 assessed as bacterial growth inhibition incubated for 24 hrs in presence of 24.3 ug/mL Mg2+ by Muller Hinton broth based dilution assay; assay type: functional
[13] = Cytotoxicity against mouse J774.A1 cells assessed as viable cells at 12.5 ug/mL incubated for 24 hrs by CCK-8 assay relative to control; assay type: toxicity, cell-based; conditions: at 12.5 µg/mL, read-out: Activity
[14] = tested on: Cell membrane; test: Disruption of outer membrane integrity in Acinetobacter baumannii ATCC17978
[15] = tested on: Acinetobacter baumannii; test: Antimicrobial activity against Acinetobacter baumannii ATCC17978 assessed as bacterial growth inhibition incubated for 24 hrs in presence of 3220 ug/mL Na+ by Muller Hinton broth based dilution assay; assay type: functional
[16] = tested on: Escherichia coli; test: Antimicrobial activity against Escherichia coli ATCC25922 assessed as log reduction in microbial load at 4 times of MIC measured at 1 hr by time-kill kinetics assay; assay type: functional
[17] = tested on: Staphylococcus aureus; test: Antibiofilm activity against Staphylococcus aureus ATCC29213 assessed as inhibition of biofilm formation at 0.78 ug/mL incubated for 24 hrs by crystal violet staining based analysis relative to control; assay type: functional
[18] = tested on: Staphylococcus aureus; test: In vivo antibacterial activity against Staphylococcus aureus ATCC29213 infected in cyclophosphamide immunosuppressed keratitis C57BL/6 mouse model assessed as log reduction in bacterial load at 0.5 % administered topically 4 times per day for 3 days; assay type: functional; conditions: time 3 day
[19] = Cytotoxicity against mouse J774.A1 cells assessed as viable cells at 50 ug/mL incubated for 24 hrs by CCK-8 assay relative to control; assay type: toxicity, cell-based; conditions: at 50 µg/mL, read-out: Activity
[20] = tested on: Escherichia coli; test: Disruption of preformed biofilm in Escherichia coli ATCC25922 assessed as residual preformed biofilm at 12.5 ug/mL incubated for 24 hrs by crystal violet staining based analysis relative to control; assay type: functional; conditions: dose 12.5 µg/ml
[21] = tested on: Escherichia coli; test: Antibiofilm activity against Escherichia coli ATCC25922 assessed as inhibition of biofilm formation at 3.125 ug/mL incubated for 24 hrs by crystal violet staining based analysis relative to control; assay type: functional
[22] = tested on: Escherichia coli; test: Antibiofilm activity against Escherichia coli ATCC25922 assessed as inhibition of biofilm formation at 6.25 ug/mL incubated for 24 hrs by crystal violet staining based analysis relative to control; assay type: functional
[23] = tested on: Escherichia coli; test: Antimicrobial activity against Escherichia coli ATCC25922 assessed as bacterial growth inhibition incubated for 24 hrs in presence of 3220 ug/mL Na+ by Muller Hinton broth based dilution assay; assay type: functional
[24] = Cytotoxicity against mouse J774.A1 cells assessed as viable cells at 3.125 ug/mL incubated for 24 hrs by CCK-8 assay relative to control; assay type: toxicity, cell-based; conditions: at 3.125 µg/mL, read-out: Activity
[25] = tested on: Escherichia coli; test: Antimicrobial activity against Escherichia coli ATCC25922 assessed as bacterial growth inhibition incubated for 24 hrs in presence of 24.3 ug/mL Mg2+ by Muller Hinton broth based dilution assay; assay type: functional
[26] = tested on: Staphylococcus aureus; test: Antimicrobial activity against Staphylococcus aureus ATCC29213 assessed as log reduction in microbial load at 4 times of MIC measured at 1 hr by time-kill kinetics assay; assay type: functional
[27] = Cytotoxicity against mouse NCTC clone 929 cells assessed as viable cells at 6.25 ug/mL incubated for 24 hrs by CCK-8 assay relative to control; assay type: toxicity, cell-based; conditions: NCTC clone 929 (L929) cells, at 6.25 µg/mL, read-out: Activity
[28] = tested on: Acinetobacter baumannii; test: Antimicrobial activity against Acinetobacter baumannii ATCC17978 assessed as bacterial growth inhibition incubated for 24 hrs in presence of 100 ug/mL Ca2+ by Muller Hinton broth based dilution assay; assay type: functional
[29] = Cytotoxicity against mouse NCTC clone 929 cells assessed as viable cells at 25 ug/mL incubated for 24 hrs by CCK-8 assay relative to control; assay type: toxicity, cell-based; conditions: NCTC clone 929 (L929) cells, at 25 µg/mL, read-out: Activity
[30] = tested on: Candida albicans; test: Antimicrobial activity against Candida albicans CMCC98001 assessed as fungal growth inhibition incubated for 48 hrs in presence of 24.3 ug/mL […] by Sabouraud Dextrose broth based dilution assay; assay type: functional
[31] = tested on: Cell membrane; test: Disruption of membrane integrity in Candida albicans ATCC10231 assessed as increase in fluorescence intensity at 1 to 8 times of MIC measured for 1 hr by SYTOX green dye based fluorescence analysis
[32] = tested on: Escherichia coli; test: Disruption of preformed biofilm in Escherichia coli ATCC25922 assessed as residual preformed biofilm at […] ug/mL incubated for 24 hrs by crystal violet staining based analysis relative to control; assay type: functional; conditions: dose […] microg/ml, 1.56 ug/mL
[33] = tested on: Escherichia coli; test: Antimicrobial activity against Escherichia coli ATCC25922 assessed as bacterial growth inhibition incubated for 24 hrs by Muller Hinton broth based dilution assay; assay type: functional
[34] = tested on: Escherichia coli; test: Antibiofilm activity against Escherichia coli ATCC25922 assessed as inhibition of biofilm formation at 0.78 ug/mL incubated for 24 hrs by crystal violet staining based analysis relative to control; assay type: functional

Compound	Activity [1]	MIC [2] [µg/mL]	log(activity) [3]	MIC [4] [µg/mL]	MIC [5] [µg/mL]	MIC [6] [µg/mL]	Activity [7]	Activity [8] [%]	Activity [9]	MIC [10] [µg/mL]	MIC [11] [µg/mL]	MIC [12] [µg/mL]	viability at 24 h, 12.5 ug/mL [13] [%]	Activity [14]	MIC [15] [µg/mL]	log(activity) [16]	inhibition at 0.78 µg/mL [17] [%]	log(activity) [18]	viability at 24 h, 50 ug/mL [19] [%]	Activity [20] [%]	further results
CCCCCCCCCN1CCCc2cc(OCCCCNC(=N)N)ccc21	Active	3.12	>3	0.78	1.56 (≈ 4.01 µM)	0.78 (≈ 2.01 µM)	inactive	71.31	Dose-Dependent Effect	0.78	0.78	0.78	91.9	Active	3.12	>3	91	6.6	42.5	8.81	inhibition at 3.125 µg/mL [21]: 96.2%; inhibition at 6.25 µg/mL [22]: 100%; MIC [23]: 1.56 µg/mL; viability at 24 h, 3.125 ug/mL [24]: 98.3%; MIC [25]: 1.56 µg/mL; log(activity) [26]: >3; viability at 24 h, 6.25 ug/mL [27]: 92.1%; MIC [28]: 3.12 µg/mL; viability at 24 h, 25 ug/mL [29]: 72.9%; MIC [30]: 0.78 µg/mL; Activity [31]: Dose-Dependent Effect; Activity [32]: 72.32%; MIC [33]: 1.56 µg/mL (≈ 4.01 µM); inhibition at 0.78 µg/mL [34]: 49.9%
CC(C)=CCN1CCCc2cc(OCCCCCCCCNC(=N)N)ccc21	Active	3.12	>3	0.78	3.12 (≈ 8.08 µM)	0.78 (≈ 2.02 µM)	inactive	70.52	Dose-Dependent Effect	0.78	0.78	0.78	90	Active	3.12	>3	93.6	6.3	31.3	6.85	inhibition at 3.125 µg/mL [21]: 92.8%; inhibition at 6.25 µg/mL [22]: 101%; MIC [23]: 3.12 µg/mL; viability at 24 h, 3.125 ug/mL [24]: 99.5%; MIC [25]: 3.12 µg/mL; log(activity) [26]: >3; viability at 24 h, 6.25 ug/mL [27]: 91.2%; MIC [28]: 3.12 µg/mL; viability at 24 h, 25 ug/mL [29]: 77.9%; MIC [30]: 0.78 µg/mL; Activity [31]: Dose-Dependent Effect; Activity [32]: 85.82%; MIC [33]: 3.12 µg/mL (≈ 8.08 µM); inhibition at 0.78 µg/mL [34]: 32.2%
